The source of these data is US20240336657A1, “G-ALPHA-S PEPTIDE INHIBITORS AND USES THEREOF” (The Regents of the University of California, priority 2021, published 2024).

Positions of bridges follow the written chain, without caps; N, C: chain ends. Non-standard residues stand in square brackets, D forms with d. Residues, ends and D or L forms follow the SMILES beside them.

Assay [1] concerns the target T1, Gαs/Gβγ (Homo sapiens, UniProt P63092).
T1 construct: expressed in transfected cells; host or cells: HEK293 cells
The experiment in a line: BRET2 based Gα Gβγ interaction assay in HEK293 cells (β2AR, isoproterenol). It is filed as cell-based. As to conditions: pretreated 25 μM, 16 hours, 10 nM isoproterenol. From the text:
(§1) We next tested GD20-F10L in HEK 293 cells overexpressing both β2AR and Gαs/Gβγ. Rluc8 was inserted within a flexible loop region between the αB-αC helices of Gαs (FIG. 23J) and GFP2 was inserted at the N-terminus of Gγ2 to capture Gαβγ heterotrimer interaction. A decrease in the bioluminescence resonance energy transfer (BRET2) signal between labeled G protein subunits can detect Gαβγ dissociation (FIG. 21C) in live cells (Olsen et al., 2020). We examined Gαβγ trimer dissociation elicited by the GPCR agonist at various concentrations of cyclic peptides by monitoring the net BRET2 signal. In cells that were transiently transfected with a Gαs-coupled β2-adrenergic receptor (β2AR), GαsShort_Rluc8, […], and Gγ-GFP2, ISO application stimulated a basal net BRET response. […] This effect was GD20-F10L dose dependent (FIGS. 21D-21E). […] To assess the specificity of GD20-F10L at the G protein level, we tested it against the Gαi/Gβγ interaction. […]
(§2) 8 hours after plating in 96-well assay plates, media was replaced with 100 μL of cyclic peptide dilutions in DMEM with 1% dialyzed FBS. […] Plates were then read in a TECAN Spark 20 M plate reader with 395 nm (RLuc8-coelenterazine 400a) and 510 nm (GFP2) emission filters, at integration times of 1 s per well. Plates were read serially six times, and measurements from the fourth read were used in all analyses. […]
For orientation: Bioluminescence resonance energy transfer reports proximity on the nanometre scale.

For assay [2], the target named is T2, Gαi1/Gβγ (Homo sapiens, UniProt P63096).
T2 construct: expressed in transfected cells; host or cells: HEK293 cells
The experiment in a line: BRET2 based Gα Gβγ interaction assay in HEK293 cells (M2R, acetylcholine). To be noted: pretreated 25 μM, 16 hours, 100 nM acetylcholine. The format is cell-based.
Text: as §1, §2

The target of assay [3] is T3, adenylyl cyclase (Homo sapiens, UniProt O95622+Q08462).
T3 construct: C1 domain (residues 442-658, VC1) of human ADCY5; C2 domain (residues 871-1082, IIC2) of human ADCY2; made in house; host or cells: Escherichia coli BL21(DE3)
The experiment in a line: Forskolin-mediated, Gαs-independent adenylyl cyclase activation. The format is biochemical.

The target of assay [4] is T4, GTP- and GppNHp-bound Gαs Q227L mutant (Homo sapiens, UniProt P63092, Q227L).
T4 construct: made in house; host or cells: Escherichia coli BL21(DE3)
The experiment in a line: Adenylyl cyclase activation assay with oncogenic mutant. It is filed as biochemical. An excerpt: Gαs is one of the most frequently mutated G proteins in human cancer. Hotspot mutations in Gαs (Q227) disrupt its GTPase activity, thereby locking Gαs in the GTP-bound active conformation (Zachary et al., 1990).

The target of assay [5] is Gαs (Homo sapiens, UniProt P63092). The experiment in a line: GDP dissociation assay ([3H]GDP). Details: made in house; host or cells: Escherichia coli BL21(DE3). The format is biochemical. Here is the method: Gα proteins were diluted to 400 nM in the EDTA buffer (20 mM HEPES 7.5, 150 mM NaCl, 1 mM EDTA-Na 8.0, 2 mM DTT). [^3H]GDP (1 mCi/mL, 25.2 μM) was added to a final concentration of 1.2 μM, followed by cyclic peptides addition. After incubation at 20° C. for 30 minutes, the same volume of assay buffer ([…] HEPES-Na 7.5, 150 mM NaCl, 2 mM MgCl2, and 1 mM GDP) was added to initiate [^3H]GDP dissociation. At various points, […] was removed and mixed with 390 μL of ice-cold wash buffer (20 mM HEPES 7.5, 150 mM NaCl, 20 mM MgCl2). The mixture was immediately filtered through a mixed cellulose membrane (25 mm, 0.22 μm) held by a microanalysis filter holder (EMD Millipore). The membrane was washed by ice-cold wash buffer (500 μL×3), put in a 6-mL plastic vial and air-dried (room temperature 1.5 h). 5 mL of CytoScint-ES Liquid Scintillation Cocktail was added to each vial. After incubation overnight at room temperature, the vial was used for liquid scintillation counting with a LS 6500 Multi-Purpose Scintillation Counter.
The GDP dissociation curves were fitted by the software GraphPad Prism using the following equation to calculate the dissociation rates (koff): […]
in which “Y” is the radioactivity (Counts per minute) of the sample at time “X” (minutes), and Y0 is the calculated radioactivity of the sample at the time point 0.

T3 sequence (O95622 442-658): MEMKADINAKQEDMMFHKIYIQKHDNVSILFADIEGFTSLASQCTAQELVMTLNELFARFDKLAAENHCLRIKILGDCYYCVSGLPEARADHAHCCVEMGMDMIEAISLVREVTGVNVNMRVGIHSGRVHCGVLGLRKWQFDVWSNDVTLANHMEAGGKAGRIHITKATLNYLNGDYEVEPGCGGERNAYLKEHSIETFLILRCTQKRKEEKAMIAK
T3 sequence (Q08462 871-1082): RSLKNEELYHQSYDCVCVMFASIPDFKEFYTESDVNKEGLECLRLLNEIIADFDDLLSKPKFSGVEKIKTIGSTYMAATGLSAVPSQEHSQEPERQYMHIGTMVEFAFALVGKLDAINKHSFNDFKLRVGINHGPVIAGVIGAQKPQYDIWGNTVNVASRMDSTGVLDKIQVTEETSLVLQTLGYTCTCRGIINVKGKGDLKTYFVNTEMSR
Sequence of Gαs (P63092 1-380 isoform P63092-2): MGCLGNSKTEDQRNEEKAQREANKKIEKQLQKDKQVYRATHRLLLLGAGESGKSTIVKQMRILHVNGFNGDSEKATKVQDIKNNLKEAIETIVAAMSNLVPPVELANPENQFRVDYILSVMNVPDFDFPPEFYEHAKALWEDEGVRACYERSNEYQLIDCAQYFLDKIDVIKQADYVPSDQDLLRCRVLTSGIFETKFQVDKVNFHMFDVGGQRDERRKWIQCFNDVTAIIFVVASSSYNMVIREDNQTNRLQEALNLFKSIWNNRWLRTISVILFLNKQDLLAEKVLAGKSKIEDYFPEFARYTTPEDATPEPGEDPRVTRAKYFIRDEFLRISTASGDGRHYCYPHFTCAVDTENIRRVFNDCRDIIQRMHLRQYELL
T1 sequence (P63092 1-380 isoform P63092-2): as above
T2 sequence (P63096 whole entry): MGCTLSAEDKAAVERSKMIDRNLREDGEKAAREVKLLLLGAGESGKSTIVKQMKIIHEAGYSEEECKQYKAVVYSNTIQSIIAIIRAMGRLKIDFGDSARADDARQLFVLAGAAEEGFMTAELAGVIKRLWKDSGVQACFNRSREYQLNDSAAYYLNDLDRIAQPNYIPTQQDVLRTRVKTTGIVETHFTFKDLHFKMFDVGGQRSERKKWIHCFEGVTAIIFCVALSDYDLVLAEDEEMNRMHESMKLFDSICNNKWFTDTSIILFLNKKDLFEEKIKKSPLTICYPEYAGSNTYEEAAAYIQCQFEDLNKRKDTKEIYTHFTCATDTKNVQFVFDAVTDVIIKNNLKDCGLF
T4 sequence (P63092 7-380 isoform P63092-2 Q213L limits assumed): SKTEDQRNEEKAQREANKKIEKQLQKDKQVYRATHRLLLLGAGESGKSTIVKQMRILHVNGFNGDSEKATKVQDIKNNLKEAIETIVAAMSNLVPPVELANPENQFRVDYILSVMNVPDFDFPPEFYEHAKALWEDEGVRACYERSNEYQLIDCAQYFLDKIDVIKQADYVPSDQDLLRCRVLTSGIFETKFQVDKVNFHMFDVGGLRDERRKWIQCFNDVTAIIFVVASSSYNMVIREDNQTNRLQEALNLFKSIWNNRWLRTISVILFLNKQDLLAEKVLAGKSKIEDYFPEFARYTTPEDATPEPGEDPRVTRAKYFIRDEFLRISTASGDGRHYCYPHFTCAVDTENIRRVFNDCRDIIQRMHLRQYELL

For the compound `CC[C@H](C)[C@@H]1NC(=O)[C@H](CC(C)C)NC(=O)[C@@H](Cc2ccc(O)cc2)NC(=O)CSC[C@@H](C(=O)NCC(N)=O)NC(=O)[C@@H]2CCCN2C(=O)[C@H](CC(C)C)NC(=O)[C@H](CC(N)=O)NC(=O)[C@H](CC(C)C)NC(=O)[C@H](C)NC(=O)[C@H](Cc2c[nH]c3ccccc23)NC(=O)[C@H](CCC(N)=O)NC(=O)[C@H](CCCNC(=N)N)NC(=O)[C@H](Cc2ccccc2)NC(=O)[C@H]([C@@H](C)O)NC1=O` [GD20-F10L] ({CH2CO}-[dY]LITFRQWALNLPCG-NH2; thioether N-14), the “net BRET2 signal between Gαs and Gγ after isoproterenol” value in assay [1] is recorded as “induced a greater net BRET2 signal”. The “net BRET2 signal change between Gαi and Gβγ after acetylcholine” value in assay [2] is given as “did not induce a net BRET2 signal change”.

In the case of `CC[C@H](C)[C@@H]1NC(=O)[C@H](C)NC(=O)[C@H](Cc2ccc(O)cc2)NC(=O)[C@H](C(C)C)NC(=O)[C@H](CO)NC(=O)[C@H](CCC(=O)O)NC(=O)[C@H](Cc2ccccc2)NC(=O)[C@@H](Cc2ccc(O)cc2)NC(=O)CSC[C@@H](C(=O)NCC(N)=O)NC(=O)[C@H](CC(C)C)NC(=O)[C@H]([C@@H](C)O)NC(=O)CNC(=O)[C@H](Cc2c[nH]c3ccccc23)NC1=O` [GN13] ({CH2CO}-[dY]FESVYAIWGTLCG-NH2; thioether N-13), the “inhibition of forskolin-mediated, Gαs-independent adenylyl cyclase activation” value in assay [3] is listed as “did not inhibit”. The “inhibition of Gαs Q227L mutant in the adenylyl cyclase activation assay” value in assay [4] is on record as “inhibited”. The “effect on Gαs GDP dissociation rates (koff)” value in assay [5] is reported as “only slightly influenced”.
